Columns and labels:
Assay type in all cases: in vivo
Myzus persicae = assay: Activity against Myzus persicae (foliar application); conditions: 400 ppm active ingredient, spray on infected pea seedlings, 20°, 3 and 6 days, read-out: percentage reduction in the population (% activity)
Protocol: Activity Against Myzus persicae (Foliar Application) Pea seedlings are infected with Myzus persicae, subsequently sprayed with a spray mixture comprising 400 ppm of active ingredient and then incubated at 20°. 3 and 6 days later, the percentage reduction in the population (% activity) is determined by comparing the number of dead aphids between the treated and untreated plants.

Plutella xylostella = assay: Activity against Plutella xylostella (sprayed cabbage plants); conditions: 72 h, 400 ppm active ingredient, sprayed young cabbage plants, 3rd instar caterpillars, 3 days, read-out: percentage reduction in the population and in the feeding damage (% activity)
Protocol: Activity Against Plutella xylostella Young cabbage plants are sprayed with an aqueous emulsion spray mixture comprising 400 ppm of active ingredient and, after the spray coating has dried on, populated with 10 caterpillars (3rd instar) of Plutella xylostella and introduced into a plastic container. 3 days later, the percentage reduction in the population and in the feeding damage (% activity) are determined by comparing the number of dead caterpillars and the feeding damage between the treated and untreated plants.

Spodoptera littoralis = assay: Activity against Spodoptera littoralis (sprayed soya plants); conditions: 72 h, 400 ppm active ingredient, sprayed young soya plants, 1st instar caterpillars, 3 days, read-out: percentage reduction in the population and in the feeding damage (% activity)
Protocol: Activity Against Spodoptera littoralis Young soya plants are sprayed with an aqueous emulsion spray mixture comprising 400 ppm of active ingredient and, after the spray coating has dried on, populated with 10 caterpillars (1st instar) of Spodoptera littoralis and introduced into a plastic container. 3 days later, the percentage reduction in the population and in the feeding damage (% activity) are determined by comparing the number of dead caterpillars and the feeding damage between the treated and untreated plants.

Heliothis virescens = assay: Activity against Heliothis virescens (foliar application); conditions: 144 h, 400 ppm active ingredient, sprayed young soya plants, 1st instar caterpillars, 6 days, read-out: percentage reduction in the population and in the feeding damage (% activity)
Protocol: Activity Against Heliothis virescens (Foliar Application) Young soya plants are sprayed with an aqueous emulsion spray mixture comprising 400 ppm of active ingredient and, after the spray coating has dried on, populated with 10 caterpillars (1st instar) of Heliothis virescens and introduced into a plastic container. 6 days later, the percentage reduction in the population and in the feeding damage (% activity) are determined by comparing the number of dead caterpillars and the feeding damage between the treated and untreated plants.

Diabrotica balteata = assay: Activity against Diabrotica balteata (sprayed maize seedlings); conditions: 144 h, 400 ppm active ingredient, 2nd instar larvae, 6 days, read-out: percentage reduction in the population (% activity)
Protocol: Activity Against Diabrotica balteata Maize seedlings are sprayed with an aqueous emulsion spray mixture comprising 400 ppm of active ingredient and, after the spray coating has dried on, populated with 10 larvae (2nd instar) of Diabrotica balteata and introduced into a plastic container. 6 days later, the percentage reduction in the population (% activity) is determined by comparing the number of dead larvae between the treated and untreated plants.

Measured: inhibition at 400 ppm

CNC(=O)c1cc2ccccc2c(Cl)c1NC(=O)c1cc(C(F)(F)F)nn1-c1ncccc1Cl [Compound T1.1]
> 80%: all assays above

CC(C)NC(=O)c1cc2ccccc2c(Cl)c1NC(=O)c1cc(C(F)(F)F)nn1-c1ncccc1Cl [Compound T1.3]
not listed: Myzus persicae
> 80%: all other assays above

CNC(=O)c1cc2ccccc2c(Br)c1NC(=O)c1cc(C(F)(F)F)nn1-c1ncccc1Cl [Compound T7.1]
> 80%: all assays above

CC(C)NC(=O)c1cc2ccccc2c(Br)c1NC(=O)c1cc(C(F)(F)F)nn1-c1ncccc1Cl [Compound T7.3]
not listed: Myzus persicae
> 80%: all other assays above
